# In patent US20250154607A1, “ISOTHERMAL AMPLIFICATION OF PATHOGENS” (priority 2021, published 2025):
# Assays:
# [1] = system: nasal swab ribonucleases; assay: Protection of RNA from nasal swab ribonucleases (influenza B RNA APA); type: biochemical, human
# [2] = biological target: T1, RNase A (Bos taurus, UniProt P61823); assay: RNase Alert assay of RNase A activity recovery after SDS/DTT pretreatment; type: biochemical; settings: 2 ng RNase A, 2 minutes at 58° C.; 10 mM DTT and/or 0.2% SDS; then 4% βCD
# T1 sequence (P61823 27-150): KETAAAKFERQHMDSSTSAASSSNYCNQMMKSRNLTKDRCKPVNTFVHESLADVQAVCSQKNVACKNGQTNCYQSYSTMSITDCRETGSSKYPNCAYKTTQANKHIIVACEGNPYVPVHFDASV
# Description: 2 ng RNase A was incubated 2 minutes at 58° C. in […] solutions containing either 10 mM DTT+0.2% SDS (+), 0.2% SDS (triangle), 10 mM DTT (square), or neither (solid line) and then the RNase Alert assay was used to study the recovery of any RNase activity upon sequestration of SDS after dissolving lyophilized APA reagents without enzymes but containing RNase Alert substrate and protective agent (4% βCD) with continued incubation and fluorescence data collection at 58° C. In the presence of RNase activity, the RNase alert indicator substrate releases detectable fluorescence. […] FIG. 11A depicts recovery of RNase A activity after identical pretreatment without addition of βCD, in this case monitoring activity in […] of the solution by transfer to an RNase alert “wet” reaction format. […] Thus, as shown here, simultaneous treatment with ionic detergent and reducing agent is required for successful irreversible inactivation under the conditions described herein. […] Without being bound by any particular theory, this may be related to the impact of cyclodextrin and other APA additives on the refolding process. This example also provides further confirmation that the prior art and currently available methods (e.g, employing a reducing agent but no denaturant) are inadequate under these conditions, with an independent, commercially available RNase assay.
smiles,measurement,setting,value
"CCCCCCCCCCCCOS(=O)(=O)[O-].[Na+] [SDS, sodium dodecyl sulfate]",RNA detectability eliminated by recovered RNase activity (assay calibration),"[1]; 0.2% SDS without DTT, 2-minute incubation at 58° C.",> 95%
same,Influenza B RNA detection after nasal swab eluate pretreatment and SDS sequestration,"[1]; nasal swab eluate 4% of swab, 0.2% SDS with or without 10 mM DTT, 2 minutes at 58° C., then 4% βCD",no detection
same,"Recovery of RNase A activity after pretreatment, with βCD",[2],virtually full recovery of enzyme activity
